Our source for the IC50 values is BindingDB's records for doi:10.1016/j.bmc.2019.03.049 (Zhuhai Campus of Zunyi Medical University, 2019).

The target of the test is Hepatocyte growth factor receptor (Homo sapiens) (UniProt P08581). The test can be described thus: Inhibition of c-MET (unknown origin) using FAM-labelled peptide as substrate measured after 10 mins by mobility shift assay.
Chain of Hepatocyte growth factor receptor (Homo sapiens) (P08581 whole entry, looked up): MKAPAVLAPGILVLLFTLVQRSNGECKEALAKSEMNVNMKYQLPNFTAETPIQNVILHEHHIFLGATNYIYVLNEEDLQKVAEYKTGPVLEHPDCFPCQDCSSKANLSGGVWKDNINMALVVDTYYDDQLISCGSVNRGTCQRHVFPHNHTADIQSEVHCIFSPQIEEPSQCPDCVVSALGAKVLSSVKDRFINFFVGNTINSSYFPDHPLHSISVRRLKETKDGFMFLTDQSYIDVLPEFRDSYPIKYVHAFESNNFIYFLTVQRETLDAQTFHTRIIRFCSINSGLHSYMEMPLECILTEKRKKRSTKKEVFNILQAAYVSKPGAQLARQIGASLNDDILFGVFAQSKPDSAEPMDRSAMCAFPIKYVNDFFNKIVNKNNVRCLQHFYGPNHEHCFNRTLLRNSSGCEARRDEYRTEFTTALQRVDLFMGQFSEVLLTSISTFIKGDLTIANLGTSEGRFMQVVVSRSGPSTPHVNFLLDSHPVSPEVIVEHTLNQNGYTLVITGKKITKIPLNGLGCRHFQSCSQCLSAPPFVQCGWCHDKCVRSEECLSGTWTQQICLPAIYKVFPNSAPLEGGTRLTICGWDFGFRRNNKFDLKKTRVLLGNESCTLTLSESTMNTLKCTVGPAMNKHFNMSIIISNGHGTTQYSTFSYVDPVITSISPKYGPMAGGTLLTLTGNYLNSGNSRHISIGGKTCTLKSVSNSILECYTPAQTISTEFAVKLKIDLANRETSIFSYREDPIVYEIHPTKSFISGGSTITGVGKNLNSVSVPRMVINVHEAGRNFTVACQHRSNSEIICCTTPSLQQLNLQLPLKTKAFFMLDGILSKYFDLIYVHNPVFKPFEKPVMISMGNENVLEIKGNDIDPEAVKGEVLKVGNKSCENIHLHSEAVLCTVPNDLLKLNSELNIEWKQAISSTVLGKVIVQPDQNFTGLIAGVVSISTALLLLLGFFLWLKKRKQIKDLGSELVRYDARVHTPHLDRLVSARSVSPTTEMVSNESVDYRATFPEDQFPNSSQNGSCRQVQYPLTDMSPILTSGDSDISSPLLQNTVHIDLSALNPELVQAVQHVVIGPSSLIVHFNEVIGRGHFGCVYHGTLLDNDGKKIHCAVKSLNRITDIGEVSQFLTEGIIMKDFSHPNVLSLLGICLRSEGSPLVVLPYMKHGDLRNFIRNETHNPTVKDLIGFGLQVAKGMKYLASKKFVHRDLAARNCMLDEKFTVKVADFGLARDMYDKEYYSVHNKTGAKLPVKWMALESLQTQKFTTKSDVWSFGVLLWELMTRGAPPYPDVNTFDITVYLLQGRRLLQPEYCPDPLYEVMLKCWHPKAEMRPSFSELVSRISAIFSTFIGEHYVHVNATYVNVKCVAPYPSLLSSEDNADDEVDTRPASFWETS
`COc1cc2c(Oc3ccc(C4SCC(=O)N4NC(=O)Nc4ccc(F)cc4F)cc3)ccnc2cc1OCCCN1CCOCC1` (stereo not drawn): the IC50 is 3.35 µM. Under `COc1cc2c(Oc3ccc(C4SCC(=O)N4NC(=O)Nc4ccccc4)cc3)ccnc2cc1OCCCN1CCOCC1` (stereo not drawn) stands 4.52 µM; under `COc1cc2c(Oc3ccc(C4SCC(=O)N4NC(=O)Nc4ccc(F)cc4)cc3)ccnc2cc1OCCCN1CCOCC1` (stereo not drawn), 4.3 µM.
